Results published in patent US10285983B2, “3-(1H-pyrrolo[2,3-B]pyridin-2-yl)-1H-pyrazolo[3,4-B] pyridines and therapeutic uses thereof” (Samumed, LLC, priority 2015, dated 2019).

Legend:
[1] = system: primary human mesenchymal stem cells (hMSCs); experiment: Chondrogenesis induction in hMSCs (nodule count, Rhodamine B/Nile Red); assay type: cell-based; conditions: 144 h, 6 days; for EC50: concentration required to induce 50% levels of chondrogenesis vs TGF-β3, read-out: Conc (nM) of 50% TGF-β3 activity; for Emax: relative to TGF-β3 (10 ng/mL) positive control, read-out: Max. Activity as % TGF-β3 activity
Method: Representative compounds were screened using primary human mesenchymal stem cells (hMSCs) to determine their ability to induce chondrogenesis (process by which cartilage is developed).
Primary human mesenchymal stem cells (hMSCs) were purchased from Lonza (Walkersville, Md.) and expanded in Mesenchymal Stem Cell Growth Media (Lonza). Cells between passage 3 and 6 were used for the experiments.
Each compound was dissolved in DMSO as a 10 mM stock and used to prepare compound source plates. Serial dilution (1:3, 6-point dose-response curves from 2700 nM to 10 nM) and compound transfer was performed using the ECHO 550 (Labcyte, Sunnyvale, Calif.) into 96-well clear bottom assay plates (Greiner Bio-One) with appropriate DMSO backfill for a final DMSO concentration of 0.03%. hMSCs were plated at 20,000 cells/well in 250 μL/well Incomplete Chondrogenic Induction Medium (Lonza; DMEM, dexamethasone, ascorbate, insulin-transferrin-selenium [ITS supplement], gentamycin-amphotericin [GA-1000], sodium pyruvate, proline and L-glutamine). TGF-β3 (10 ng/mL) was used as a positive control for differentiation while negative control wells were treated with 75 nL DMSO for normalization and calculating EC50 values. Cells were incubated at 37° C. and 5% CO2 for 6 days. To image chondrogenic nodules, the cells were fixed using 4% formaldehyde (Electron Microscopy Sciences), and stained with 2 μg/mL Rhodamine B (Sigma-Aldrich) and 20 μM Nile Red (Sigma-Aldrich) [Johnson K., et. al, A Stem Cell-Based Approach to Cartilage Repair, Science, (2012), 336(6082), 717-721]. The nodules imaged (4 images per well at 4× magnification) by excitation at 531 nm and emission at 625 nm and quantified using the CellInsight CX5 (Thermo Scientific). Number of nodules in each well was normalized to the average of 3 DMSO treated wells on the same plate using Excel (Microsoft Inc.). The normalized averages (fold change over DMSO) of 3 replicate wells for each compound concentration were calculated. Due to solubility limitations of some of the compounds, curve fitting was incomplete leading to inaccurate EC50 determinations.
Using TGF-β3 as a positive control, the concentration of representative compounds required to induce 50% levels of chondrogenesis is reported. In addition, the maximum activity of each compound and the respective dose that each compound reached maximum chondrogenesis activity is reported.

[2] = system: IL-6 (THP-1 human monocyte cell line); experiment: IL-6 inhibition in LPS-stimulated THP-1 cells (HTRF); assay type: cell-based; conditions: LPS 500 ng/mL; for EC50: 22 hours, IL6 HTRF; for inhibition at 10 µM: given for EC50 >10 μM, read-out: percent inhibition at 10 μM
Outline: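 THP-1 cells, serum-reduced to 1% FBS for 24 h, preincubated 2 h at 37° C with compound (10-point, 1:3 series, 0.1% DMSO), then stimulated with 500 ng/mL LPS for 22 h. IL-6 quantified by HTRF 665/620 nm ratio, normalized to DMSO; EC50 by four-parameter fit, else percent inhibition at 10 μM.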

| EC50 [1] [nM] | EC50 [2] [µM] | SMILES | Emax [1] [%] | inhibition at 10 µM [2] [%] |
| --- | --- | --- | --- | --- |
| 30 | > 10 | CCCCC(=O)Nc1cncc(-c2cnc3[nH]nc(-c4cc5c(-c6ccccc6F)ccnc5[nH]4)c3c2)c1 [Compound 75, N-(5-(3-(4-(2-Fluorophenyl)-1H-pyrrolo[2,3-b]pyridin-2-yl)-1H-pyrazolo [3,4-b]pyridin-5-yl)pyridin-3-yl)pentanamide] | 82 | 33.8 |
| 10 | 5.36 | CCNCc1cncc(-c2cnc3[nH]nc(-c4cc5c(-c6cccnc6)ccnc5[nH]4)c3c2)c1 [Compound 90, N-((5-(3-(4-(Pyridin-3-yl)-1H-pyrrolo[2,3-b]pyridin-2-yl)-1H-pyrazolo[3,4-b]pyridin-5-yl)pyridin-3-yl)methyl)ethanamine] | 92 |  |
|  | > 10 | Nc1cncc(-c2cnc3[nH]nc(-c4cc5c(-c6ccncc6)ccnc5[nH]4)c3c2)c1 [Compound 115, 5-(3-(4-(Pyridin-4-yl)-1H-pyrrolo[2,3-b]pyridin-2-yl)-1H-pyrazolo[3,4-b]pyridin-5-yl)pyridin-3-amine] | 12 | 40.6 |
| 300 | > 10 | CC(C)(C)CC(=O)Nc1cncc(-c2cnc3[nH]nc(-c4cc5c(-c6ccncc6)ccnc5[nH]4)c3c2)c1 [Compound 128, 3,3-Dimethyl-N-(5-(3-(4-(pyridin-4-yl)-1H-pyrrolo[2,3-b]pyridin-2-yl)-1H-pyrazolo[3,4-b]pyridin-5-yl)pyridin-3-yl)butanamide] | 79 | 45.8 |

Second part, the compound before the results:

| SMILES | EC50 [1] [nM] | EC50 [2] [µM] | Emax [1] [%] | inhibition at 10 µM [2] [%] |
| --- | --- | --- | --- | --- |
| CCNCc1cncc(-c2cnc3[nH]nc(-c4cc5c(-c6ccccc6F)ccnc5[nH]4)c3c2)c1 [Compound 62, N-((5-(3-(4-(2-Fluorophenyl)-1H-pyrrolo[2,3-b]pyridin-2-yl)-1H-pyrazolo [3,4-b]pyridin-5-yl)pyridin-3-yl)methyl)ethanamine] | 100 | > 10 | 55 | 13.3 |
| CN(C)c1cncc(-c2cnc3[nH]nc(-c4cc5c(-c6ccccc6F)ccnc5[nH]4)c3c2)c1 [Compound 63, 5-(3-(4-(2-Fluorophenyl)-1H-pyrrolo[2,3-b]pyridin-2-yl)-1H-pyrazolo[3,4-b]pyridin-5-yl)-N,N-dimethylpyridin-3-amine] |  | > 10 | 35 | 11.3 |
| CC(C)Nc1cncc(-c2cnc3[nH]nc(-c4cc5c(-c6ccccc6F)ccnc5[nH]4)c3c2)c1 [Compound 68, 5-(3-(4-(2-Fluorophenyl)-1H-pyrrolo[2,3-b]pyridin-2-yl)-1H-pyrazolo[3,4-b]pyridin-5-yl)-N-isopropylpyridin-3-amine] | 10 | > 10 | 82 | 42.9 |
| CC(C)CC(=O)Nc1cncc(-c2cnc3[nH]nc(-c4cc5c(-c6cccnc6)ccnc5[nH]4)c3c2)c1 [Compound 86, 3-Methyl-N-(5-(3-(4-(pyridin-3-yl)-1H-pyrrolo[2,3-b]pyridin-2-yl)-1H-pyrazolo[3,4-b]pyridin-5-yl)pyridin-3-yl)butanamide] |  | > 10 | 44 | 34.3 |
| CN(C)Cc1cncc(-c2cnc3[nH]nc(-c4cc5c(-c6cccnc6)ccnc5[nH]4)c3c2)c1 [Compound 97, N,N-Dimethyl-1-(5-(3-(4-(pyridin-3-yl)-1H-pyrrolo[2,3-b]pyridin-2-yl)-1H-pyrazolo[3,4-b]pyridin-5-yl)pyridin-3-yl)methanamine] |  | > 10 | 49 | 38.5 |
| c1cncc(-c2ccnc3[nH]c(-c4n[nH]c5ncc(-c6cncc(CN7CCCCC7)c6)cc45)cc23)c1 [Compound 99, 5-(5-(Piperidin-1-ylmethyl)pyridin-3-yl)-3-(4-(pyridin-3-yl)-1H-pyrrolo[2,3-b]pyridin-2-yl)-1H-pyrazolo[3,4-b]pyridine] |  | > 10 | 44 | 37 |
